In patent publication US6455057B1, “Skin care composition” (Elizabeth Arden Co., div. of Conopco, Inc., priority 1999, dated 2002):
Values joined by “and” are separate entries in the source; they are usually repeats but may differ in a detail not shown here. Identical values can stand only once.

Columns and labels:
Assay type in all cases: cell-based
[1] = tested on: decorin synthesis in human dermal fibroblasts; experiment: Dot blot assay for decorin protein in dermal fibroblast conditioned medium
Method: (§1) Primary human foreskin fibroblasts at passage 2 (P2) were seeded into 12-well plates at 10000 cells/cm^2 and maintained for 24 hours in an atmosphere of 5% carbon dioxide and 4% oxygen in Dulbeccos Modified Eagles Medium (DMEM) supplemented with 10% foetal calf serum. After this time the cells were washed with serum free DMEM and then incubated in fresh serum free DMEM for a further 60 hours. The fibroblast monolayers were then washed again with serum free DMEM. Test reagents and vehicle controls were added to the cells in triplicate in a final volume of 0.4 ml/well fresh serum free DMEM and incubated for a further 24 hours. This fibroblast conditioned medium was either analysed immediately or snap frozen in liquid nitrogen and stored at −70° C. for future analysis. The cells were then counted and data from the dot-blot analysis subsequently standardised to cell number.
(§2) Samples of conditioned medium from dermal fibroblasts treated with vehicle (as a control) or test reagents were supplemented with 20 mM dithiothreitol (1:10 dilution of 200 mM stock solution) and 0.1% sodium dodecylsulphate (1:100 dilution of 10% stock solution), mixed well and then incubated at 75° C. for 2 minutes. A standard for the assay was generated by serial dilution of neat fibroblast conditioned medium from fibroblasts seeded at 10000 cells/cm^2 in a 175 cm^2 flask and maintained in serum free DMEM as described above.
Assay samples were subsequently applied in triplicate to a prewetted sheet of Immobilon-P transfer membrane using the 96-well Bio-Dot Apparatus from Bio-Rad as described in the manufacturers guidelines. Approximately 200 μl of medium was applied per well. The medium was allowed to filter through the membrane under gravity (30 minutes) after which the membrane was washed twice with PBS (200 μl). These PBS washes were allowed to filter through the membrane under gravity (2×15 minutes). The Bio-Dot apparatus was then attached to a vacuum manifold and a third and final PBS wash carried out under suction. The apparatus was disassembled, the membrane removed and quickly cut as required before being placed in blocking buffer overnight at 4° C. Membranes prepared for decorin analysis were blocked with 3% (w/v) BSA/0.1% (v/v) Tween 20 in PBS, whilst those for procollagen-I analysis were blocked with 5% (w/v) non fat dried milk powder/0.05% Tween 20 in PBS.
Following this the Immobilon strips were again washed with TBS/Tween 20 (3×5 minutes) before being allowed to dry in air at room temperature. The dried membranes were wrapped in cellophane and exposed to a Molecular Dynamics storage phosphor screen for 16-18 hours. At the end of this time the exposed screen was scanned by a phosphorimager (Molecular Dynamics Phosphorimager SF) using ImageQuant™ software. Dot intensity was assessed by computer-assisted image analysis using the quantification tools in ImageQuant™, standardised to cell number and the effects of various test reagents on decorin and procollagen-I synthesis were determined relative to a vehicle treated control value of 100 arbitrary units.

[2] = tested on: procollagen-I synthesis in human dermal fibroblasts; experiment: Dot blot assay for procollagen-I protein in dermal fibroblast conditioned medium; settings: vehicle control = 100
Method: as §1, §2
Assay samples were subsequently applied in triplicate to a prewetted sheet of Immobilon-P transfer membrane using the 96-well Bio-Dot Apparatus from Bio-Rad as described in the manufacturers guidelines. Approximately 200 μl of medium was applied per well. The medium was allowed to filter through the membrane under gravity (30 minutes) after which the membrane was washed twice with PBS (200 μl). These PBS washes were allowed to filter through the membrane under gravity (2×15 minutes). The Bio-Dot apparatus was then attached to a vacuum manifold and a third and final PBS wash carried out under suction. The apparatus was disassembled, the membrane removed and quickly cut as required before being placed in blocking buffer overnight at 4° C. […]
Following this the Immobilon strips were again washed with TBS/Tween 20 (3×5 minutes) before being allowed to dry in air at room temperature. […] Dot intensity was assessed by computer-assisted image analysis using the quantification tools in ImageQuant™, standardised to cell number and the effects of various test reagents on decorin and procollagen-I synthesis were determined relative to a vehicle treated control value of 100 arbitrary units.

[3] = tested on: ICAM production by human skin fibroblasts; experiment: Fibroblast ICAM-1 assay (PMA-induced)
Method: Intracellular adhesion molecules (ICAM) and PEG2 production by human skin fibroblasts can be induced by the inflammatory stimulus PMA (phorbal myristate acetate). PMA represents an external stressor which induces oxidative stress and inflammatory responses in cells.
Primary human foreskin fibroblasts at passage 2 (P2) were seeded into 96-well plates at 10000 cells/well and maintained for 24 hours in an atmosphere of 5% carbon dioxide in Dulbeccos Modified Eagles Medium (DMEM) supplemented with 10% foetal calf serum. The test substances as indicated in the table 2 below were added to fresh cell media (DMEM, supplemented with 10% foetal calf serum) in dimethylsulphoxide and ethanol final concentration<1%) in triplicate and incubated for a further 24 hours. Phorbal myristate acetate (PMA) (Sigma) was added 10 nM to the media and the cells incubated for a further 24 hours. […] The fibroblasts/media were then analysed as described below immediately or snap frozen in liquid nitrogen and stored at −70° C. for future analysis. The cells were then counted and data from the dot-blot analysis subsequently standardised to cell number.
Media were discarded and cells washed with Dulbecco PBS. To the washed cells, 150 μl 0.1% Triton X-100 (Sigma) was added for 3 minutes to extract ICAM from cell membrane. The extracts were transferred to Eppendoff centrifuge tubes and centrifuged at 1000 g for 2 min to remove cell debris. A volume of 100 μl supernatant was used for ICAM assay. The soluble ICAM-1 was assessed with commercially available immunoenzymometric assay kit (R&D Systems). Concentrations of ICAM-1 in the samples were determined based on parallel running standard curve.

[4] = tested on: PGE2 production by human skin fibroblasts; experiment: Fibroblast PGE2 assay (PMA-induced); settings: PMA 10 nM + genistein 1 μM, read-out: % of Inhibition Of Fibroblast PGE2 Levels
Method: Primary human foreskin fibroblasts at passage 2 (P2) were seeded into 96-well plates at 10000 cells/well and maintained for 24 hours in an atmosphere of 5% carbon dioxide in Dulbeccos Modified Eagles Medium (DMEM) supplemented with 10% foetal calf serum. The test substances as indicated in the table 2 below were added to fresh cell media (DMEM, supplemented with 10% foetal calf serum) in dimethylsulphoxide and ethanol final concentration<1%) in triplicate and incubated for a further 24 hours. Phorbal myristate acetate (PMA) (Sigma) was added 10 nM to the media and the cells incubated for a further 24 hours. […] The fibroblasts/media were then analysed as described below immediately or snap frozen in liquid nitrogen and stored at −70° C. for future analysis.
Volumes of 50 μl culture medium were taken for PGE2 assay after gently shaking the culture plate. PGE2 levels in the medium were determined with a Biotrak PGE2 immunoassay kit (Amersham, UK). The assay is based on the competition between unlabelled PGE2 in the sample and a fixed quantity of horseradish peroxidase labelled PGE2 for a limited amount of fixed PGE2 specific antibody. Concentrations of unlabelled sample PGE2 are determined according to a standard curve which was obtained at the same time.

For `CCCCCCCCCCC/C=C\CCCCC(=O)O` [PA, petroselinic acid], the Decorin ([1]; 0.01 μM PA, relative to vehicle treated control = 100 arbitrary units, separate experiments) was 102.7% and 100.9% and 95.08% and 93.97% and 93.7% and 91.6%, the Decorin ([1]; 0.1 μM PA, vehicle control = 100) was 100.3% and the Procollagen-I ([2]; 0.01 μM PA) was 117.34%. It also gave a Procollagen-I ([2]; 0.1 μM PA) of 90.94%.

`O=C(O[C@@H]1Cc2c(O)cc(O)cc2O[C@@H]1c1cc(O)c(O)c(O)c1)c1cc(O)c(O)c(O)c1` [EGCG, epigallocatechin gallate] was tested, and the “% of inhibition of fibroblast ICAM production” value ([3]; PMA 10 nM + EGCG 10 μM) was 14.4%, the Decorin ([1]; 0.005 μg/ml EGCG, vehicle control = 100) was 118.4% and the Decorin ([1]; 0.05 μg/ml EGCG, vehicle control = 100) was 111.7%. For the same molecule, the Decorin ([1]; 0.5 μg/ml EGCG, vehicle control = 100) was 120.2%.

Molecule `O=c1c(O)c(-c2ccc(O)c(O)c2)oc2cc(O)cc(O)c12` [quercetin] has an inhibition at 10 µM ([3]; Homo sapiens, Skin fibroblast, PMA 10 nM + quercetin 10 μM) of 27.8% and a Decorin ([1]; 1 μM quercetin, vehicle control = 100) of 97.60%.

For `O=c1c(-c2ccc(O)cc2)coc2cc(O)cc(O)c12` [genistein], the inhibition at 1 µM [4] was 86.2%, the inhibition at 1 µM ([3]; Homo sapiens, Skin fibroblast, PMA 10 nM + genistein 1 μM) was 30.6% and the Decorin ([1]; 1 μM genistein, vehicle control = 100) was 99.75%. The Procollagen-I ([2]; 1 μM genistein) was 101.74%.

In the case of `O=C(O)c1cc(O)c(O)c(O)c1` [gallic acid], the Decorin ([1]; 0.001 μg/ml gallic acid, vehicle control = 100) is reported as 96.6%.

`O=c1c(-c2ccc(O)cc2)coc2cc(O)ccc12` [daidzein] gave a Decorin ([1]; 0.01 μM daidzein, vehicle control = 100) of 92.83% and a Procollagen-I ([2]; 0.01 μM daidzein) of 96.04%.
